# “Also recorded” adds a separate entry of the source.
# Tests used:
# [1] = tested on: Staphylococcus aureus bacteremia (SAB); experiment: Phase 3 study of ceftobiprole vs daptomycin ± aztreonam in complicated SAB (NCT03138733): efficacy; assay type: in vivo, human; details: for DRC-assessed SAB relapses: 4 patients on daptomycin (2 MSSA, 2 MRSA), 2 patients on ceftobiprole (all MSSA); for Overall success rate in patients with high vancomycin MICs of 2-8 mg/L: 16 patients (8 MRSA, 8 MSSA), 7/8 vs 4/8; for Adjusted difference ceftobiprole − daptomycin ± aztreonam (95% CI): DRC overall success at PTE (mITT): Cochran-Mantel-Haenszel weights, adjusted for dialysis status and prior antibacterial treatment use; for Non-inferiority for overall success at PTE (70 days post-randomization): pre-specified −15% non-inferiority margin
# [2] = assay type: in vivo
# Experimental: Safety population: The safety population consisted of all randomized patients who received any amount/dose of study medication. Patients in the safety population were analyzed according to the first medication actually received.
# Ceftohiprole 500 mg (as 667 mg ceftobiprole medocaril) was administered as a 2-hour intravenous (i.v.) infusion every 6 hours in the first 8 days, and every 8 hours from Day 9 onwards (with dose and/or schedule adjusted in patients with renal impairment). Daptomycin weight-based at 6 mg/kg (up to 10 mg/kg in accordance with institutional standards) administered as 0.5-hour i.v. infusion every 24 hours (with schedule adjusted in patients with renal impairment). Optional aztreonam 1000 mg fixed dose administered as 0.5-hour i.v. infusion every 24 hours (with dose adjusted in patients with renal impairment). The target treatment duration in Part I was 21-28 days of study medication, with a maximum treatment duration of 28 days. The maximum treatment duration In Part 2 was 42 days.
# • 1. All-cause mortality assessed at Day 70 (PTE visit) in the mITT population. • 2. Microbiological cradication assessed by the DRC at Day 70 (PTE visit) in the mITT population. • 3. The overall success rate in the ITT, mITT, and CE populations; • a) at the BOT and PTE (ITT and CE populations only) visits • b) at the EOT and PTE visits, for RIE vs non-IE SAB • c) at the EOT and PTE visits, by renal-function status • 4. Development of new metastatic foci or other complications of SAB after Day 7 assessed in the mITT and CE populations. • 5. Time to S. aureus bloodstream clearance, defined as the elapsed time (days) from randomization to bloodstream clearance, with bloodstream clearance defined as the occurrence of two consecutive study days with blood-culture-negative assessments for S. aureus. • 6. Safety and tolerability based on incidence, type, severity, and relationship to study medication of AEs; and changes in laboratory tests • 7. Pharmacokinetics of ceftobiprole in the PK population
# [3] = tested on: MSSA; experiment: MIC of baseline blood S. aureus isolates: MSSA; assay type: cell-based, Staphylococcus aureus; details: MSSA samples
# From the text: (§1) The distribution of ceftobiprole, daptomycin, and aztreonam MICs, including MIC50, MIC90, and MIC range, for blood S. aureus, MRSA, and MSSA, was tabulated for the mITT and CE populations. The shifts in ceftobiprole, daptomycin, and aztreonam MIC results from baseline to PTE, and the shifts in ceftobiprole, daptomycin, and aztreonam MIC results from baseline to the maximum value post-baseline by baseline infecting organisms (i.e., pathogens), were presented overall and by geographical region in the mITT and CE populations.
# [4] = tested on: MRSA; experiment: MIC of baseline blood S. aureus isolates: MRSA; assay type: cell-based, Staphylococcus aureus; details: MRSA samples
# From the text: as §1
# [5] = tested on: S. aureus; experiment: On-treatment MIC shifts and MIC vs clinical failure, blood S. aureus; assay type: cell-based, Staphylococcus aureus; details: MIC of the drug received, daptomycin: three patients (two MSSA, one MRSA)
# From the text: as §1
# [6] = tested on: acute bacterial skin and soft tissue infections; details: TARGET Phase 3; Overcash et al.; cited from earlier work
# [7] = prolonged (>4 weeks) ceftobiprole treatment; cited from earlier work
# [8] = mITT, Cochran-Mantel-Haenszel adjusted
# [9] = mITT, Cochran-Mantel-Haenszel adjusted, listed as ceftobiprole
# [10] = mITT, S. aureus (overall), bloodstream clearance = two consecutive study days with negative blood culture
smiles,measurement,setting,value
Nc1nc(/C(=N/O)C(=O)N[C@@H]2C(=O)N3C(C(=O)O)=C(/C=C4\CCN([C@@H]5CCNC5)C4=O)CS[C@H]23)ns1 [Ceftobiprole],DRC-assessed SAB relapses,[1],1.1%
same,Overall success rate in patients with high vancomycin MICs of 2-8 mg/L,[1],87.5%
same,Adjusted difference ceftobiprole − daptomycin ± aztreonam (95% CI): DRC overall success at PTE (CE),"[1]; CE, Cochran-Mantel-Haenszel adjusted",0.6% (−8.3. 9.5)
same,"Overall success at the PTE visits, patients with MRSA of USA clonal strain type","[1]; MRSA isolates typed by MLST, spa and SCCmec, 16/21 vs 16/23",76.2%
same,Investigator-assessed overall success at the PTE visit,[1]; mITT,73.5%
same,Patients who died through the PTE visit,[1]; mITT,9.0%
same,Patients who experienced new metastatic foci or other complications of SAB after Day 7,[1]; mITT,5.8%
same,Patients with microbiological eradication at the PTE visit,[1]; mITT,82.0%
same,Adjusted proportion difference: investigator-assessed overall success at PTE,"[1]; mITT, 95% CI: −4.2, 13.5",4.7%
same,Responders (overall success at the PTE visit),"[1]; mITT, 70 days post-randomization",69.8%
same,Adjusted difference ceftobiprole − daptomycin ± aztreonam (95% CI): ACM through PTE,[1]; [8],"−0.5% (−6.2, 5.2)"
same,Adjusted difference ceftobiprole − daptomycin ± aztreonam (95% CI): death due to SAB (DRC),[1]; [8],"0.4% (−3.2, 4.0)"
same,Adjusted difference ceftobiprole − daptomycin ± aztreonam (95% CI): microbiological response at PTE,[1]; [8],"5.1% (−2.9, 13.0)"
same,Adjusted difference ceftobiprole − daptomycin ± aztreonam (95% CI): new metastatic foci or other complications of SAB after Day 7,[1]; [8],"0.1% (−4.6, 4.8)"
same,Adjusted difference ceftobiprole − daptomycin ± aztreonam (95% CI): ACM through PTE,[1]; [9],−0.5%
same,Adjusted difference ceftobiprole − daptomycin ± aztreonam (95% CI): microbiological response at PTE,[1]; [9],5.1%
same,Adjusted difference ceftobiprole − daptomycin ± aztreonam (95% CI): new metastatic foci or other complications of SAB after Day 7,[1]; [9],0.1%
same,Adjusted difference ceftobiprole − daptomycin ± aztreonam (95% CI): DRC overall success at PTE (mITT),[1]; mITT,"2.0% (−7.1, 11.1)"
same,Adjusted difference ceftobiprole − daptomycin ± aztreonam (95% CI): DRC overall success at PTE (mITT),"[1]; mITT, listed as ceftobiprole",2.0%
same,Median time (days) clearance (95% CI),"[1]; mITT, MRSA",5 days
same,Patients with clearance achieved,"[1]; mITT, MRSA",93.3%
same,Median time (days) clearance (95% CI),"[1]; mITT, MSSA",3 days
same,Patients with clearance achieved,"[1]; mITT, MSSA",94.3%
same,Median time (days) clearance (95% CI),"[1]; mITT, S. aureus (overall)",4 days
same,Patients with clearance achieved,[1]; [10],94.2%
same,"Time (days) to S. aureus bloodstream clearance, Median (95% CI)","[1]; mITT, Table 1","4 (3, 5) days"
same,Non-inferiority for overall success at PTE (70 days post-randomization),[1]; mITT,non-inferiority of ceftobiprole
same,Non-inferiority for overall success at PTE (70 days post-randomization),"[1]; mITT, listed as ceftobiprole",non-inferiority of ceftobiprole to daptomycin±aztreonam; also recorded: non-inferior to daptomycin
same,"Response rate (primary endpoint), non-white patients","[1]; subgroup analysis, 5/10 vs 5/6",50.0%
same,"Response rate (primary endpoint), age group of 18-34 years","[1]; subgroup analysis, 17/20 vs 11/19",85.0%
same,"AE anemia, patients","[2]; human, in vivo",11.0%
same,"AE gamma-glutamyl-transferase increased, patients","[2]; human, in vivo",6.3%
same,"AE nausea, patients","[2]; human, in vivo",10.5%
same,Adverse events leading to discontinuation,"[2]; human, in vivo",9.4%
same,Drug-related AEs leading to discontinuation,"[2]; human, in vivo",4.7%
same,Drug-related AEs leading to discontinuation: allergy-type events,"[2]; human, in vivo",4 n
same,Drug-related AEs leading to discontinuation: hepatic function test abnormalities,"[2]; human, in vivo",1 n
same,Drug-related AEs leading to discontinuation: leukopenia,"[2]; human, in vivo",1 n
same,Drug-related AEs leading to discontinuation: nausea/vomiting,"[2]; human, in vivo",4 n
same,Drug-related AEs leading to discontinuation: seizure,"[2]; human, in vivo",1 n
same,Patients who experienced a serious adverse event (SAE),"[2]; human, in vivo","18,8%"
same,Patients who experienced a severe AE,"[2]; human, in vivo",15.2%
same,Patients who experienced an AE,"[2]; human, in vivo",63.4%
same,"Study treatment discontinuation, reason non-related AE","[2]; human, in vivo",3.2%
same,"Study treatment discontinuation, reason related AE","[2]; human, in vivo",4.8%
same,Study-drug-related AEs,"[2]; human, in vivo",13.1%
same,"Study discontinuation, reason death",[2]; mITT population,9.0%
same,"Study treatment discontinuation, reason death",[2]; mITT population,4.8%
same,Isolates at MIC 0.25 mg/L,[3],51%
same,Isolates at MIC 0.5 mg/L,[3],48%
same,Isolates at MIC either 0.25 mg/L or 0.5 mg/L,[3],99%
same,Isolates at MIC 0.5 mg/L,[4],14%
same,Isolates at MIC 1 mg/L,[4],58%
same,Isolates at MIC 2 mg/L,[4],28%
same,"On-treatment increases in MICs by ≥four-fold, patients",[5]; listed as cefobiprole,No on-treatment increases
same,Early clinical response and investigator-assessed clinical success vs vancomycin and aztreonam,[6],non-inferior to vancomycin and aztreonam
same,Risk of convulsions,[7],potential for an increased risk of convulsions
"CCCCCCCCCC(=O)N[C@@H](Cc1c[nH]c2ccccc12)C(=O)N[C@H](CC(N)=O)C(=O)N[C@@H](CC(=O)O)C(=O)N[C@@H]1C(=O)NCC(=O)N[C@@H](CCCN)C(=O)N[C@@H](CC(=O)O)C(=O)N[C@H](C)C(=O)N[C@@H](CC(=O)O)C(=O)NCC(=O)N[C@H](CO)C(=O)N[C@@H]([C@H](C)CC(=O)O)C(=O)N[C@@H](CC(=O)c2ccccc2N)C(=O)O[C@@H]1C [Daptomycin, reference compound]",DRC-assessed SAB relapses,[1],3.0%
same,Overall success rate in patients with high vancomycin MICs of 2-8 mg/L,[1],50.0%
same,Median time (days) clearance (95% CI),"[1]; mITT, MRSA",5 days
same,Patients with clearance achieved,"[1]; mITT, MRSA",87.8%
same,Median time (days) clearance (95% CI),"[1]; mITT, MSSA",4 days
same,Patients with clearance achieved,"[1]; mITT, MSSA",95.2%
same,Median time (days) clearance (95% CI),"[1]; mITT, S. aureus (overall)",4 days
same,Patients with clearance achieved,[1]; [10],92.9%
same,Drug-related AEs leading to discontinuation: cosinophilic pneumonia,[2]; Safety population,2 n
same,Drug-related AEs leading to discontinuation: myopathy,[2]; Safety population,1 n
same,Tolerability / safety in patients with complicated SAB,[2]; in vivo,well tolerated
same,Isolates at MIC 0.25 mg/L,[3],28%
same,Isolates at MIC 0.5 mg/L,[3],71%
same,Isolates at MIC either 0.25 mg/L or 0.5 mg/L,[3],99%
same,Isolates at MIC 0.25 mg/L,[4],22%
same,Isolates at MIC 0.5 mg/L,[4],76%
same,Isolates at MIC 1 mg/L,[4],2%
same,"On-treatment increases in MICs by ≥four-fold, patients",[5],1.5%
